Test results reported in patent publication US11866430B2, “Naphthyridinone compounds useful as T cell activators” (priority 2018, dated 2024).
Read-outs that look alike come from different tables or passages of the source.

How the values were obtained:
human DGKζ = human DGKζ (Homo sapiens (Human), UniProt Q13574); assay: DGKζ LIPGLO assay (extruded liposome substrate); type: biochemical
In short: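 Sf9-derived DGKζ was premixed 10 min with PC/DAG/PS liposomes (100 nm extruded) in MOPS pH 7.5 buffer containing NaCl, MgCl2, CaCl2 and DTT.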

[1] = test system: Jurkat AP1-luciferase Reporter; assay: DGK AP1-Reporter Assay; type: cell-based
In short: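 Jurkat cells carrying a lentiviral AP1-luciferase reporter received 30 nl compound per well for 20 min at 37 °C and 5% CO2. They were then stimulated for 6 h with anti-CD3 solution at 0.4 μg/mL; reference wells received 4 μg/mL and unstimulated wells medium only. Readout was Steady-Glo luciferase luminescence (RLU).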

naïve human CD8 T cells = assay: CellTiter-Glo CD8 T Cell Proliferation Assay; type: cell-based; conditions: CellTiter-Glo CD8 T cell proliferation, normalized, read-out: CD8 GLO normalized EC50
Experimental: Frozen naïve human CD8 T cells were thawed in RPMI+10% FBS, incubated for 2 h in 37° C., and counted. The 384-well tissue culture plate was coated overnight at 4° C. with 20 μl anti-human CD3 at 0.1 μg/mL in plain RPMI, which was removed off the plate before 20 k/40 μl CD8 T cells with 0.5 μg/mL soluble anti-human CD28 were added to each well. The compounds were echoed to the cell plate immediately after the cells were plated. After 72 h incubation at 37° C. incubator, 10 μl CellTiter-glo reagent (Promega catalog number G7570) was added to each well. The plate was vigorously shaken for 5 mins, incubated at room temperature for another 15 mins and read on Envision for CD8 T cell proliferation. In analysis, 0.1 μg/mL anti-CD3 and 0.5 μg/mL anti-CD28 stimulated CD8 T cell signal was background.

Human venous whole blood = assay: Human Whole Blood IFN-γ Assay; type: cell-based; conditions: human whole blood, anti-CD3 plus anti-CD28 as baseline, 3 μM Example 40 co-stimulation as 100% activation, read-out: INF-γ Whole Blood Normalized Agonist EC50
Experimental: Human venous whole blood (22.5 μL per well), obtained from healthy donors, was pre-treated with compounds for one hour at 37° C. in a humidified 95% air/5% CO2 incubator. The blood was stimulated with 2.5 μL anti-human CD3 and anti-CD28 mAb at a final concentration of 1 μg/mL each for 24 hours at 37° C. IFN-γ in the supernatants was measured using AlphaLISA kit (Cat #AL217).

[2] = extruded liposome substrate, read-out: DGKζ LIPGLO IC50
[3] = Homo sapiens, Jurkat, read-out: API-Luciferase Reporter IC50, Table 3
[4] = Homo sapiens, Jurkat, read-out: DGKAP1 Lucif Reporter IC50, Table 4
[5] = read-out: DGKAP1 Lucif Reporter IC50, Table 4

human DGKζ, sequence (Q13574 other isoform, or with tags, fused parts or gaps): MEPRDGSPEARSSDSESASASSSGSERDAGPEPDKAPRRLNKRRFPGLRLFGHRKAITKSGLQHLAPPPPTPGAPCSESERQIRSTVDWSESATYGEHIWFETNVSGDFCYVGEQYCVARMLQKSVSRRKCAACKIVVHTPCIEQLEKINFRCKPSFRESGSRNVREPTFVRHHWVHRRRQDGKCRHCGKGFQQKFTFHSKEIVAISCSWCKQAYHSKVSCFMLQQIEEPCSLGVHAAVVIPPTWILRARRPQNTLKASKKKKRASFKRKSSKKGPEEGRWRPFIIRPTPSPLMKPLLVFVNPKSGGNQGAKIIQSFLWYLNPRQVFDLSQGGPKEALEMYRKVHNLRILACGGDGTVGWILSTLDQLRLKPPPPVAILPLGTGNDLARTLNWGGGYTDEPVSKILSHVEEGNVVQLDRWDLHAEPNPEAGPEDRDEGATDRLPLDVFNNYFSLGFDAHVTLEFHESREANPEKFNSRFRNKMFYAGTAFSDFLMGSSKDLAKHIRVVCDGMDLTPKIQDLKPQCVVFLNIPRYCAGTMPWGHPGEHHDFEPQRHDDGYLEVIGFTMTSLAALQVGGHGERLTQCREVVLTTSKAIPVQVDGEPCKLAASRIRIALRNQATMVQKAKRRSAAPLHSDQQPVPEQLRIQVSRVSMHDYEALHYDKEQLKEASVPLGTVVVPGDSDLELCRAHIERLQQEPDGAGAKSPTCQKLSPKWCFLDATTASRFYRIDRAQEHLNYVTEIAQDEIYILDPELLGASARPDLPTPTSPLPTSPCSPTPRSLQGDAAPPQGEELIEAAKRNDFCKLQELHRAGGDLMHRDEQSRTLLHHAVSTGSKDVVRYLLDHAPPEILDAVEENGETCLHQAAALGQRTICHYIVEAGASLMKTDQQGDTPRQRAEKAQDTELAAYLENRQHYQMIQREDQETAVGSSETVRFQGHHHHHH

SMILES	IC50 (human DGKζ; [2]) [µM]	IC50 [1, 3] [µM]	IC50 [1, 4] [µM]	also measured
COc1cc(C#N)ccc1CN1CCN(c2c(C#N)c(=O)n(C)c3ccc(Cl)nc23)CC1 [Example 424, 6-chloro-4-{4-[(4-cyano-2-methoxyphenyl)methyl]piperazin-1-yl}-1-methyl-2-oxo-1,2-dihydro-1,5-naphthyridine-3-carbonitrile]	27	10		
C#CCn1c(=O)c([N+](=O)[O-])c(N2CCN(C(CC)c3ccc(F)cc3)CC2)c2nc(C#N)ccc21 (single isomer, unassigned) [Example 141, 8-{4-[1-(4-fluorophenyl)propyl]piperazin-1-yl}-7-nitro-6-oxo-5-(prop-2-yn-1-yl)-5,6-dihydro-1,5-naphthyridine-2-carbonitrile]	1.4	0.24		EC50 (naïve human CD8 T cells; Homo sapiens, T-cell): 0.01 µM
Cc1ccc(CN2CCN(c3c(C#N)c(=O)n(C)c4ccc(Cl)nc34)CC2)cc1 [Example 386, 6-chloro-1-methyl-4-{4-[(4-methylphenyl)methyl]piperazin-1-yl}-2-oxo-1,2-dihydro-1,5-naphthyridine-3-carbonitrile]	6.7	0.05		EC50 (Human venous whole blood; Homo sapiens): 1.24 µM
CC(C)C(c1ccc(F)cc1)N1CCN(c2c(C#N)c(=O)n(C)c3ccc(Cl)nc23)CC1 (single isomer, unassigned) [Example 315, 6-chloro-4-{4-[1-(4-fluorophenyl)-2-methylpropyl]piperazin-1-yl}-methyl-2-oxo-1,2-dihydro-1,5-naphthyridine-3-carbonitrile]	1.6		10	EC50 (naïve human CD8 T cells; Homo sapiens, T-cell): 1.26 µM
Cn1c(=O)c(C#N)c(N2CCN(C(c3ccc(F)cc3)c3ccccc3O)CC2)c2nc(C#N)ccc21 (stereo not drawn) [Example 11, 8-{4-[(4-fluorophenyl)(2-hydroxyphenyl)methyl]piperazin-1-yl}-5-methyl-6-oxo-5,6-dihydro-1,5-naphthyridine-2,7-dicarbonitrile]		0.08		IC50 (human DGKζ; DGKζ LIPGLO IC50, extruded liposome substrate): 1.8 µM
COc1ccccc1C(c1ccc(F)cc1)N1CCN(c2c(C#N)c(=O)n(C)c3ccc(Br)nc23)CC1 (single isomer, unassigned) [Example 13, 6-bromo-4-{4-[(4-fluorophenyl)(2-methoxyphenyl)methyl]piperazin-1-yl}-1-methyl-2-oxo-1,2-dihydro-1,5-naphthyridine-3-carbonitrile]		1.3		EC50 (Human venous whole blood; Homo sapiens): 5 µM
Cc1ccc2c(n1)c(N1CCN(C(C)c3ccc(F)cc3)CC1)c(Br)c(=O)n2C (stereo not drawn) [Example 224, 3-bromo-4-(4-(1-(4-fluorophenyl)ethyl)piperazin-1-yl)-1,6-dimethyl-1,5-naphthyridin-2(1H)-one]	20		10	EC50 (naïve human CD8 T cells; Homo sapiens, T-cell): 4.28 µM
Cn1c(=O)c(C#N)c(N2CCN(C(c3ccc(F)cc3)C3CCC3)CC2)c2nc(Cl)ccc21 (single isomer, unassigned) [Example 383, 6-chloro-4-{4-[cyclobutyl(4-fluorophenyl)methyl]piperazin-1-yl}-1-methyl-2-oxo-1,2-dihydro-1,5-naphthyridine-3-carbonitrile]	> 2.4			EC50 (naïve human CD8 T cells): 0.06 µM; IC50 [1, 5]: 10 µM
COc1cc(F)ccc1C(c1ccc(F)cc1)N1CCN(c2c(C#N)c(=O)n(C)c3ccc(C#N)nc23)CC1 (single isomer, unassigned) [Example 406, 8-{4-[(4-fluoro-2-methoxyphenyl)(4-fluorophenyl)methyl]piperazin-1-yl}-5-methy-6-oxo-5,6-dihydro-L5-naphthyridine-2,7-dicarbonitrile]	3.1			EC50 (Human venous whole blood): 2.19 µM
CC(c1ccc(F)cc1)N1CCN(c2c(C#N)c(=O)n(C)c3ccc(Cl)nc23)CC1 (single isomer, unassigned) [Example 388, 6-chloro-4-{4-[1-(4-fluorophenyl)ethyl]piperazin-1-yl}-1-methyl-2-oxo-1,2-dihydro-1,5-naphthyridine-3-carbonitrile]	130			EC50 (naïve human CD8 T cells): 0.48 µM; IC50 [1, 5]: 3.33 µM
CC(c1ccc(F)cc1)N1CCN(c2c(C#N)c(=O)n(C)c3ccc(Cl)nc23)CC1 (single isomer, unassigned) [Example 387, 6-chloro-4-{4-[1-(4-fluorophenyl)ethyl]piperazin-1-yl}-1-methyl-2-oxo-1,2-dihydro-1,5-naphthyridine-3-carbonitrile]	1.6		3.33	EC50 (naïve human CD8 T cells): 0.18 µM
C#CCn1c(=O)c([N+](=O)[O-])c(N2CCN(C(c3ccc(F)cc3)C3CC3)CC2)c2nc(C#N)ccc21 (single isomer, unassigned) [Example 143, 8-(4-(cyclopropyl(4-fluorophenyl)methyl)piperazin-1-yl)-7-nitro-6-oxo-5-(prop-2-yn-1-yl)-5,6-dihydro-1,5-naphthyridine-2-carbonitrile]	1.1		1.28	EC50 (naïve human CD8 T cells; Homo sapiens, T-cell): 0.01 µM
Cn1c(=O)c(C#N)c(N2CCN(C(c3ccc(F)cc3)C3CCC3)CC2)c2nc(Cl)ccc21 (single isomer, unassigned) [Example 382, 6-chloro-4-{4-[cyclobutyl(4-fluorophenyl)methyl]piperazin-1-yl}-1-methyl-2-oxo-1,2-dihydro-1,5-naphthyridine-3-carbonitrile]	> 240		10	EC50 (naïve human CD8 T cells): 1.79 µM
Cn1c(=O)c(C#N)c(N2CCN(Cc3cccc4ccccc34)CC2)c2nc(C#N)ccc21 [Example 404, 5-methyl-8-{4-[(naphthalen-1-yl)methyl]piperazin-1-yl}-6-oxo-5,6-dihydro-1,5-naphthyridine-2,7-dicarbonitrile]	3.9			
CCCCn1c(=O)c([N+](=O)[O-])c(N2CCN(C(c3ccccc3)c3ccccc3)CC2)c2ncccc21 [Example 177, 4-(4-benzhydrylpiperazin-1-yl)-1-butyl-3-nitro-1,5-naphthyridin-2(1H)-one]	9.7		10	EC50 (naïve human CD8 T cells; Homo sapiens, T-cell): 10 µM
Cn1c(=O)c([N+](=O)[O-])c(N2CCN(CC(O)c3ccc(F)cc3)CC2)c2nc(C#N)ccc21 (stereo not drawn) [Example 36, 8-{4-[2-(4-fluorophenyl)-2-hydroxyethyl]piperazin-1-yl}-5-methyl-7-nitro-6-oxo-5,6-dihydro-1,5-naphthyridine-2-carbonitrile]	18	1.6		
Cc1ccc2c(n1)c(N1CCN(Cc3cccc(Cl)c3O)CC1)c(C#N)c(=O)n2C [Example 389, 4-{4-[(3-chloro-2-hydroxyphenyl)methyl]piperazin-1-yl}-1,6-dimethyl-2-oxo-1,2-dihydro-1,5-naphthyridine-3-carbonitrile]	9.4	0.65		
Cn1c(=O)c(C#N)c(N2CCN(C(CC(C)(C)C)c3ccc(F)cc3)CC2)c2nc(Cl)ccc21 (single isomer, unassigned) [Example 377, 6-chloro-4-{4-[1-(4-fluorophenyl)-3,3-dimethylbutyl]piperazin-1-yl}-1-methyl-2-oxo-1,2-dihydro-1,5-naphthyridine-3-carbonitrile]	130		10	EC50 (naïve human CD8 T cells): 10 µM
Cn1c(=O)c(C#N)c(N2CCN(C(CC(C)(C)C)c3ccc(F)cc3)CC2)c2nc(Cl)ccc21 (single isomer, unassigned) [Example 378, 6-chloro-4-{4-[1-(4-fluorophenyl)-3,3-dimethylbutyl]piperazin-1-yl}-1-methyl-2-oxo-1,2-dihydro-1,5-naphthyridine-3-carbonitrile]	> 240			EC50 (naïve human CD8 T cells): 1.74 µM; IC50 [1, 5]: 10 µM
COc1cc(F)ccc1C(c1ccc(F)cc1)N1CCN(c2c(C#N)c(=O)n(C)c3ccc(C#N)nc23)CC1 (single isomer, unassigned) [Example 407, 8-{4-[(4-fluoro-2-methoxyphenyl)(4-fluorophenyl)methyl]piperazin-1-yl}-5-methy-6-oxo-5,6-dihydro-L5-naphthyridine-2,7-dicarbonitrile]	0.45			EC50 (Human venous whole blood): 0.78 µM
Cn1c(=O)c([N+](=O)[O-])c(N2CCN(Cc3cccc4ccccc34)CC2)c2nc(C#N)ccc21 [Example 415, 5-methyl-8-{4-[(naphthalen-1-yl)methyl]piperazin-1-yl}-7-nitro-6-oxo-5,6-dihydro-1,5-naphthyridine-2-carbonitrile]	0.66		0.42	EC50 (naïve human CD8 T cells; Homo sapiens, T-cell): 0.02 µM
